Assays:
Colon 26 carcinoma [1] = test: In vivo antitumor activity against Colon 26 carcinoma, single i.p. administration (Experiment 1); parameters: species or system CDF1/Crj strain male mouse; conditions: tumor weighed 10 days after administration
Source text: A small piece of Colon 26 tumor (1-2 mm^3) was subcutaneously implanted in a lateral region of abdomen of a CDF1 /Crj strain male mouse (6 weeks old). Four days after the implantation, mice with the almost same size of tumor were divided into groups of 5-6 members each, and each mouse was intraperitoneally administered the test compound. Ten days after the administration, each of the mice was sacrificed, and the tumor was weighed to calculate the growth inhibitory ratio (GIR) by the following equation: [formula] wherein C and T represent the mean weights of tumor of the control group and the treated group, respectively.
Cisplatin (CDDP) which is a known compound was used as a comparison.

Colon 26 carcinoma [2] = test: In vivo antitumor activity against Colon 26 carcinoma, i.p. on days 4, 6 and 8 (Experiment 2); parameters: species or system CDF1/Crj strain male mouse; conditions: 40 mg/kg i.p. on day 4, 6 and 8 after implantation; tumor weighed day 14
Method: A small piece of Colon 26 tumor (1-2 mm^3) was subcutaneously implanted in a lateral region of abdomen of a CDF1 /Crj strain male mouse (7 weeks old). Four days after the implantation, mice with the almost same size of tumor were divided into groups of 5-6 members each, and each mouse was intraperitoneally administered the test compound on day 4, 6, and 8 after implantation in a dose of 40 mg/kg one day. Fourteen days after the implantation, each mouse was sacrificed, and the tumor thereof was weighed to calculate the GIR (%) by the following equation. [formula] where C and T represent the mean weights of tumor of the control group and the group administered the test compound, respectively.

plasma proteins = test: In vitro binding to plasma proteins (Experiment 3); type: in vitro ADME, SD strain rat; conditions: 37° C., 5 μg/ml of Pt, rat plasma
Method: A solution of the test compound was added to plasma obtained from SD strain rat at a ratio of 1:19 by volume which corresponded to 5 μg/ml of Pt. The mixture was incubated at 37° C. under dark. At a predetermined time, the mixture was sampled, and filtered with a molecular sieve membrane (manufactured by Amico Centriflow PMS) under centrifugation. The Pt content in the filtrate unbound Pt was assayed by an atomic absorption spectrophotometry.

[3] = Test on side-effects: body weight and BUN (Experiment 4); type: in vivo, BDF1/Crj strain male mice
Source text: BDF1 /Crj strain male mice (6 weeks old) were intraperitoneally administered the test compound, and 1, 3 and 5 days after the administration, 3 mice were saceificed to determine the body weight and the level of urea nitrogen in blood (abbreviated as BUN).

[4] = cited from earlier work
[5] = 12 mg/kg i.p., 1 day after administration
[6] = 12 mg/kg i.p., 3 days after administration
[7] = 12 mg/kg i.p., 5 days after administration
[8] = 60 mg/kg i.p., 1 day after administration
[9] = 60 mg/kg i.p., 3 days after administration
[10] = 60 mg/kg i.p., 5 days after administration

| Compound | GIR (growth inhibitory ratio) (Colon 26 carcinoma [1]; 40 mg/kg i.p. single) [%] | GIR (growth inhibitory ratio) (Colon 26 carcinoma [1]; 60 mg/kg i.p. single) [%] | GIR (growth inhibitory ratio) (Colon 26 carcinoma [1]; 80 mg/kg i.p. single) [%] | GIR (growth inhibitory ratio) (Colon 26 carcinoma [1]; 120 mg/kg i.p. single) [%] | GIR (growth inhibitory ratio) (Colon 26 carcinoma [1]; 160 mg/kg i.p. single) | CIR (Colon 26 carcinoma [2]) [%] | BUN (urea nitrogen in blood, mean ± SD) [3, 8] [mg/dL] | Body weight (mean ± SD) [3, 8] [g] | BUN (urea nitrogen in blood, mean ± SD) [3, 9] [mg/dL] | Body weight (mean ± SD) [3, 9] [g] | BUN (urea nitrogen in blood, mean ± SD) [3, 10] [mg/dL] | Body weight (mean ± SD) [3, 10] [g] | further results |
| --- | --- | --- | --- | --- | --- | --- | --- | --- | --- | --- | --- | --- | --- |
| NC[C@H]1CCCN1.O=C([O-])C1(C(=O)[O-])CCC1.[Pt+2] [Compound 1, 1,1-cyclobutanedicarboxylate(2-aminomethylpyrrolidine)platinum(II)] | 79 | 87 | 98 | 97 | died | 98 |  |  |  |  |  |  |  |
| [NH2][Pt]([NH2])([Cl])[Cl] [CDDP, cisplatin, reference compound] |  |  |  |  |  |  |  |  |  |  |  |  | GIR (growth inhibitory ratio) (Colon 26 carcinoma [1]; 4 mg/kg i.p. single): 26%; GIR (growth inhibitory ratio) (Colon 26 carcinoma [1]; 6 mg/kg i.p. single): 51%; GIR (growth inhibitory ratio) (Colon 26 carcinoma [1]; 8 mg/kg i.p. single): 62%; GIR (growth inhibitory ratio) (Colon 26 carcinoma [1]; 12 mg/kg i.p. single): 79%; GIR (growth inhibitory ratio) (Colon 26 carcinoma [1]; 16 mg/kg i.p. single): died; Percent binding to plasma proteins (plasma proteins; 1 hr incubation): 16%; Percent binding to plasma proteins (plasma proteins; 4 hr incubation): 62%; Percent binding to plasma proteins (plasma proteins; 8 hr incubation): 86%; Percent binding to plasma proteins (plasma proteins; 24 hr incubation): 93%; BUN (urea nitrogen in blood, mean ± SD) [3, 5]: 23.3 ± 4.7 mg/dL; Body weight (mean ± SD) [3, 5]: 24.6 ± 1.1 g; BUN (urea nitrogen in blood, mean ± SD) [3, 6]: 38.5 ± 28.9 mg/dL; Body weight (mean ± SD) [3, 6]: 22.55 ± 1.1 g; BUN (urea nitrogen in blood, mean ± SD) [3, 7]: 65.2 ± 31.5 mg/dL; Body weight (mean ± SD) [3, 7]: 19.0 ± 1.5 g; antitumor activity (in words) ([4]; Rosenberg et al, Nature 222, 385 (1969)): has antitumor activity; nephrotoxicity (in words) ([4]; known platinum complexes including CDDP): very serious nephrotoxicity |
| cis-dichloro-trans-dihydroxy(2-aminomethylazetidine)platinum(IV) [Compound 19] | 60 | 77 | 85 | 92 | 95% |  |  |  |  |  |  |  |  |
| (R)-1,1-cyclobutanedicarboxylate(2-aminomethylpyrrolidine)platinum(II) [Compound 3] | 70 | 85 | 90 | 95 | died | 95 | 18.3 ± 3.1 | 23.4 ± 1.5 | 13.8 ± 1.8 | 20.1 ± 1.2 | 13.8 ± 7.6 | 17.5 ± 0.7 |  |
| (S)-1,1-cyclobutanedicarboxylate(2-aminomethylpyrrolidine)platinum(II) [Compound 2] | 73 | 88 | 94 | 98 | died | 99 | 20.0 ± 2.6 | 23.1 ± 1.4 | 17.7 ± 3.1 | 19.9 ± 1.6 | 15.4 ± 5.5 | 17.9 ± 1.1 |  |
